This is an account of results in patent US8476197B2, “Aminopropenoates as fungicides” (priority 2009, dated 2013).

Each structure is given as a SMILES string. Marks after values point to notes of the source that are not given here.

The conditions of one series: pH 2.3.
Turning to `CONC(=O)C(C#N)=C(Nc1ccccc1SC)c1cccnc1Cl` [Compound 1620], the log partition coefficient (Log P) is on record as 2.19. Same read-out and setting: the result for `CCOC(=O)C(C#N)=C(NC1CC2CCC1C2)c1cccnc1Cl` (centres unmarked) [Compound 1080] reads 3.59; that for `CC(C)C(C)NC(=C(C#N)C(=O)On1nnc2ccccc21)c1cccnc1Cl` (centres unmarked) [Compound 990], 3.22; that for `CCOC(=O)C(C#N)=C(Nc1ccn(C)c1SC)c1cccnc1Cl` [Compound 1592], 3.01^[c]; 3.01^[b].

Still in this series, the particulars now being: pH 2.7.
`CCOC(=O)C(C#N)=C(NC1CCCC1OCC)c1cn(C)nc1C(F)F` (centres unmarked) [Compound 1353]: the “Log P” value is 3.21^[a]. Still for that read-out and setting: the result for `CCOC(=O)C(C#N)=C(NC(C)C1CC1)c1ccncc1C(F)(F)F` (racemic) [Compound 905] reads 3.2^[a]. On the same count and under the same terms, the result for `CCOC(=O)C(C#N)=C(NC(C)(C)C#Cc1ccc(C)cc1)c1cccnc1Cl` [Compound 1268] reads 4.41^[a]; that for `C=CCNC(=C(C#N)C(=O)OCC)c1cn(C)nc1C(F)F` [Compound 1127], 2.35^[a]; that for `CCOC(=O)C(C#N)=C(NC(C)C1CC1)c1cc(C)oc1C` (centres unmarked) [Compound 879], 3.63^[a]. On the same count and under the same terms, to `CC#CC(C)NC(=C(C#N)C(=O)OCC)c1cccnc1Cl` (centres unmarked) [Compound 1052] belongs 2.86^[a]. As for `COC(=O)C(C#N)=C(NC1(C)CCCCC1)c1cccnc1Cl` [Compound 1009], the “Log P” value was 3.13^[a].

In the case of `CCOC(=O)C(C#N)=C(NC(C)c1nccs1)c1cccnc1Cl` (centres unmarked) [Compound 6], the log partition coefficient (Log P) came out at 2.58. Still for that read-out and setting: to `CCOC(=O)C(C#N)=C(NC(C)CCc1ccccc1)c1sccc1C(F)(F)F` (centres unmarked) [Compound 437] belongs 4.56^[a].

For `CCOC(=O)C(C#N)=C(NC(C)c1ccccn1)c1c(C)nn(C)c1F` (racemic) [Compound 50], the “Log P” value is 2.28^[a]. Turning to `COC(=O)C(C#N)=C(NC(C)(C)CSC)c1sc(C)nc1C(F)(F)F` [Compound 702], the “Log P” value is 3.27^[a]. Same read-out and setting: to `CCOC(=O)C(C#N)=C(NC(C)C(C)C)c1ccnc(C(F)(F)F)c1Cl` (centres unmarked) [Compound 1627] belongs 4.18^[a]; to `CCOC(=O)C(C#N)=C(NC(C)CN(C)C)c1cn(C)nc1C(F)(F)F` (centres unmarked) [Compound 602], 1.36^[a]; to `CCOC(=O)C(C#N)=C(NC(C)C(C)Sc1ccccc1)c1cccnc1Cl` (centres unmarked) [Compound 1159], 4.13^[a]. Still for that read-out and setting: the result for `C#CC(C)NC(=C(C#N)C(=O)OC)c1sc(C)nc1C(F)(F)F` (centres unmarked) [Compound 1048] reads 2.73^[a]. For `CCOC(=O)C(C#N)=C(NC(C)c1nc(C)c(C)s1)c1c(C(F)F)nn(C)c1Cl` (racemic) [Compound 235], the lipophilicity (Log P) was 3.37^[a]. In the case of `COC(=O)C(C#N)=C(Nc1ccc(SC)cc1)c1sc(C)nc1C(F)(F)F` [Compound 516], the “Log P” value was 3.53^[a]. Still for that read-out and setting: the result for `CCOC(=O)C1(NC(=C(C#N)C(=O)OC)c2cccnc2Cl)CC1` [Compound 623] reads 1.66^[a]; that for `CCOC(=O)C(C#N)=C(NC(C)C(=O)NC)c1cc(Cl)ncc1Cl` (centres unmarked) [Compound 720], 2.19^[a]. As for `CCOC(=O)C(C#N)=C(NC(C)C1CCCCC1)c1sccc1Br` (centres unmarked) [Compound 875], the log partition coefficient (Log P) is 5.11^[a]. On the same count and under the same terms, to `CNN(C)C(=O)C(C#N)=C(NC(C)C(C)C)c1cccnc1Cl` (centres unmarked) [Compound 1628] belongs 1.3^[a]. On the same count and under the same terms, the result for `CCOC(=O)C(C#N)=C(NC(C)(C)C(C)(C)C)c1cccnc1Cl` [Compound 1273] reads 3.8^[a]; that for `CCOC(=O)C(C#N)=C(Nc1ccc(N(C)C)cc1)c1sccc1Br` [Compound 489], 3.76^[a]; that for `CCOC(=O)C(C#N)=C(NC(c1cc2ccccc2s1)C(F)(F)F)c1ccsc1I` (racemic) [Compound 165], 4.81^[a].

Consider `CCCCCCC(C)NC(=C(C#N)C(=O)OCC)c1ccsc1Br` (racemic) [Compound 820], for which the “Log P” value was 5.41^[a]. Still for that read-out and setting: to `CCC1CCCCC1NC(=C(C#N)C(=O)OC)c1cccnc1Cl` (centres unmarked) [Compound 1061] belongs 3.63^[a]; to `CCOC(=O)C(C#N)=C(NC(C)c1nccs1)c1cn(C)nc1I` (racemic) [Compound 1247], 3.46^[a]; to `CCSC(=O)C(C#N)=C(NC(C)c1nccs1)c1cccnc1Cl` (centres unmarked) [Compound 1489], 2.9^[a]. Still for that read-out and setting: to `CCCc1nccc(C(NC(C)c2nccs2)=C(C#N)C(=O)OCC)c1Cl` (centres unmarked) [Compound 1382] belongs 3.27^[a]. The same measure, in the same setting: the result for `CCOC(=O)C(C#N)=C(NC(C)c1ccc(Cl)cc1)c1ccsc1Br` (centres unmarked) [Compound 411] reads 4.35^[a]; that for `COC(=O)C(C#N)=C(NC(C)C1CCCO1)c1cccnc1Cl` (centres unmarked) [Compound 126], 2.17^[a].

As to `CCOC(=O)C(C#N)=C(Nc1ccc2ncsc2c1)c1ccsc1Br` [Compound 533], the “Log P” value was 3.11^[a]. The same measure, in the same setting: to `CCOC(=O)C(C#N)=C(NC(C)c1ccc(C)cc1)c1cn(C)nc1C(F)F` (mixture of isomers) [Compound 455] belongs 3.51^[a]. Still for that read-out and setting: the result for `CCOC(=O)C(C#N)=C(NC(C)Cc1c[nH]c2ccccc12)c1ccsc1Br` (centres unmarked) [Compound 106] reads 3.8^[a]; that for `CCNC(=O)C(C#N)=C(NC(C)c1nccs1)c1ccnc(Br)c1Cl` (centres unmarked) [Compound 1305], 2.62^[a]. On the same count and under the same terms, the result for `CC(C)C(C)NC(=C(C#N)C(=O)NCCF)c1cccnc1Cl` (centres unmarked) [Compound 1593] reads 2.76^[a]; that for `CCOC(=O)C(C#N)=C(NCc1ccccn1)c1cn(C)nc1C(F)(F)F` [Compound 139], 2.36^[a]. Turning to `CCOC(=O)C(C#N)=C(NC(C)c1nc(C)c(C)s1)c1ncc(C(F)(F)F)cc1Cl` (racemic) [Compound 37], the “Log P” value is 4.04^[a]. On the same count and under the same terms, the result for `CCOC(=O)C(C#N)=C(Nc1ccc(OC(F)F)cc1)c1sccc1C(F)(F)F` [Compound 461] reads 3.78^[a]. On the same count and under the same terms, the result for `CCOC(=O)C(C#N)=C(NC(C)c1ccc(Cl)cc1)c1cn(C)nc1C(F)F` (centres unmarked) [Compound 348] reads 3.6^[a]; that for `COC(=O)C(C#N)=C(NC1(c2c(F)cccc2F)CC1)c1cccnc1Cl` [Compound 380], 2.8^[a]; that for `CCOC(=O)C(C#N)=C(NC(C)c1nccs1)c1ccnc(Br)c1Cl` (centres unmarked) [Compound 1290], 3.02^[a]. Same read-out and setting: the result for `CCOC(=O)C(C#N)=C(NC(C)C1CC2CCC1C2)c1cccnc1Cl` (centres unmarked) [Compound 1177] reads 4.39^[a]. Take `CCOC(=O)C(C#N)=C(NC(C)C1CCC1)c1ccnn1C(F)F` (centres unmarked) [Compound 1640]: the “Log P” value was 3.56^[a]. Same read-out and setting: the result for `CCOC(=O)C(C#N)=C(NC(C)C(C)(C)C)c1sccc1C(F)(F)F` (racemic) [Compound 919] reads 4.46^[a]; that for `CCOC(=O)C(C#N)=C(NC(C)C1CCCO1)c1cn(C)nc1C(F)F` (centres unmarked) [Compound 199], 2.58^[a]; that for `CCOC(=O)C(C#N)=C(NC(C)C(C)C)c1cn(C)cc1C(F)(F)F` (racemic) [Compound 987], 3.84^[a].

With `CCOC(=O)C(C#N)=C(NC(C)C1CC2CCC1C2)c1cn(C)nc1C(F)F` (centres unmarked) [Compound 1134], the lipophilicity (Log P) was 4.03^[a]. For the compound `CCCC(COCC)NC(=C(C#N)C(=O)OC)c1cccnc1Cl` (centres unmarked) [Compound 626], the “Log P” value was 3.15^[a]. On the same count and under the same terms, to `CCOC(=O)C(C#N)=C(NC(C)C1CC1)c1ccnn1C(F)F` (centres unmarked) [Compound 1647] belongs 3.01^[a]; to `COC(=O)C(C#N)=C(NC(C)CF)c1cccnc1Cl` (centres unmarked) [Compound 746], 2.05^[a]; to `C=CC(COCc1ccccc1)NC(=C(C#N)C(=O)OC)c1sc(C)nc1C(F)(F)F` (centres unmarked) [Compound 690], 3.89^[a].

As to `CCOC(=O)C(C#N)=C(NC(C)c1ccccn1)c1ccnc(C)c1Cl` (racemic) [Compound 1243], the “Log P” value is 2.6^[a].

As to `CCOC(=O)C(C#N)=C(NC(C)COc1ccc(F)cc1)c1cccnc1Cl` (centres unmarked) [Compound 1166], the “Log P” value was 3.62^[a].

As to `CC(C)[C@H](C)N/C(=C(/C#N)C(=O)NC1COC1)c1cn(C)nc1C(F)F` [Compound 1298], the “Log P” value is 1.84^[a]. Still for that read-out and setting: the result for `CCOC(=O)C(C#N)=C(NC(C)c1nc(C)c(C)s1)c1ccsc1I` (racemic) [Compound 157] reads 3.75^[a]; that for `CCCCCC(C)NC(=C(C#N)C(=O)OCC)c1sc(C)nc1C(F)(F)F` (racemic) [Compound 858], 4.81^[a]; that for `CCOC(=O)C(C#N)=C(NC(c1cc2ccccc2s1)C(F)(F)F)c1sccc1Br` (racemic) [Compound 129], 4.9^[a]. The same measure, in the same setting: to `CCOC(=O)C(C#N)=C(NC(C)C(C)C)c1c(C(F)(F)F)nn(C)c1Cl` (racemic) [Compound 1001] belongs 4.06^[a]; to `CC#CC1(NC(=C(C#N)C(=O)OCC)c2cn(C)nc2C(F)F)CCCCC1` [Compound 1336], 3.71^[a]. Same read-out and setting: the result for `C#CC1CCCCC1NC(=C(C#N)C(=O)OC)c1cccnc1Cl` (centres unmarked) [Compound 1063] reads 2.99^[a]; that for `CCOC(=O)C(C#N)=C(NC(C)Cc1c[nH]c2ccccc12)c1cn(C)nc1C(F)(F)F` (centres unmarked) [Compound 65], 3.73^[a]. As to `CCOC(=O)C(C#N)=C(NC(C)C(=O)NC)c1sccc1C(F)(F)F` (centres unmarked) [Compound 639], the “Log P” value was 2.25^[a]. The same measure, in the same setting: to `CCOC(=O)C(C#N)=C(NC(c1cc2ccccc2s1)C(F)(F)F)c1conc1C` (centres unmarked) [Compound 93] belongs 4.24^[a]. Turning to `CCOC(=O)C(C#N)=C(NC1(c2c(F)cccc2F)CC1)c1cn(C)nc1C(F)F` [Compound 559], the “Log P” value is 3.17^[a].

Still in this series, the particulars now being: pH 7.5.
In the case of `CONC(=O)C(C#N)=C(Nc1ccccc1SC)c1cccnc1Cl` [Compound 1620], the “Log P” value is 1.96. As for `CC(NC(=C(C#N)C(=O)OC1CCC1)c1cccnc1Cl)c1nccs1` (racemic) [Compound 268], the “Log P” value amounted to 2.88. Regarding `CCOC(=O)C(C#N)=C(NC1CC2CCC1C2)c1cccnc1Cl` (centres unmarked) [Compound 1080], the “Log P” value was 3.57. In the case of `CC(C)COC(=O)C(C#N)=C(NC(C)c1nccs1)c1cccnc1Cl` (centres unmarked) [Compound 28], the “Log P” value amounted to 3.13. Same read-out and setting: to `CC(C)C(C)NC(=C(C#N)C(=O)On1nnc2ccccc21)c1cccnc1Cl` (centres unmarked) [Compound 990] belongs 3.21; to `C#CCOC(=O)C(C#N)=C(NC(C)c1nccs1)c1cccnc1Cl` (racemic) [Compound 267], 2.26; to `CCOC(=O)C(C#N)=C(Nc1ccn(C)c1SC)c1cccnc1Cl` [Compound 1592], 3.01^[c]; 3.01^[b]. Same read-out and setting: to `CC(C)OC(=O)C(C#N)=C(NC(C)c1nc2ccccc2s1)c1cccnc1Cl` (centres unmarked) [Compound 29] belongs 3.63.
